Experimental data: ChEMBL document CHEMBL1201862, “PubChem BioAssay data set” (2004)
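Step 1: Grow cells in 96-well plates. Step 2: Expose to compound for 48 hours at 5 concentrations. Step 3: Interpolate endpoints linearly; if unreached, use highest concentration. GI50 = concentration required for 50% inhibition of growth.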 Active and inactive are the calls of the source. No stated cut-off is given here; in the data, active = GI50 up to about 1.1 µM and inactive = higher.

Experiments:
Assay in all cases: NCI-60 cell line screen, 48 h
SK-MEL-5 = tested on: SK-MEL-5
RXF 393 = tested on: RXF 393
A498 = tested on: A498
HL-60 = tested on: HL-60
HCT-15 = tested on: HCT-15
HOP-62 = tested on: HOP-62
COLO 205 = tested on: COLO 205
LOX IMVI = tested on: LOX IMVI
IGROV-1 = tested on: IGROV-1
CCRF-CEM = tested on: CCRF-CEM
SN12C = tested on: SN12C
UO-31 = tested on: UO-31
DU-145 = tested on: DU-145
MDA-MB-435 = tested on: MDA-MB-435
T47D = tested on: T47D
U-251 = tested on: U-251
SF-268 = tested on: SF-268
OVCAR-3 = tested on: OVCAR-3
KM12 = tested on: KM12
Malme-3M = tested on: Malme-3M

Row | SMILES | GI50 (SK-MEL-5) | GI50 (RXF 393) | GI50 (A498) | GI50 (HL-60) | GI50 (HCT-15) [µM] | GI50 (HOP-62) | GI50 (COLO 205) | GI50 (LOX IMVI) | GI50 (IGROV-1) | GI50 (CCRF-CEM) | GI50 (SN12C) | GI50 (UO-31) | GI50 (DU-145) | GI50 (MDA-MB-435) | GI50 (T47D) | GI50 (U-251) | GI50 (SF-268) | GI50 (OVCAR-3) | GI50 (KM12) | GI50 (Malme-3M)
1 | COC(=O)c1cc2c(cc1CC1Cc3cc4c(cc3C1)CCC4)CCC2 | 52.6 µM (inactive) | 34 µM (inactive) | > 100 µM (inactive) | 15.3 µM (inactive) | 59.2 | > 100 µM (inactive) | 40.5 µM (inactive) | 24.3 µM (inactive) | 53 µM (inactive) | 16.9 µM (inactive) | 79.1 µM (inactive) | 32 µM (inactive) | 84.7 µM (inactive) | 42.6 µM (inactive) | 37.5 µM (inactive) | 34.9 µM (inactive) | 56.9 µM (inactive) | 38.6 µM (inactive) | 68.7 µM (inactive) | 86.5 µM (inactive)
2 | C/C(=N\NC(N)=S)c1ccccn1.OB(O)c1ccccc1 | 4.63 µM (inactive) | 2.37 µM (inactive) | 5.89 µM (inactive) | 1.1 µM (active) | 2.84 | 5.5 µM (inactive) | 3.85 µM (inactive) | 2.58 µM (inactive) | 4.46 µM (inactive) | 2.18 µM (inactive) | 3.52 µM (inactive) | 2.39 µM (inactive) | 3.3 µM (inactive) | 7.55 µM (inactive) | 3.8 µM (inactive) | 3.28 µM (inactive) | 2.67 µM (inactive) | 2.62 µM (inactive) | 7.45 µM (inactive) | 8.63 µM (inactive)
3 | O=C1C(=O)N(c2cccc(C(F)(F)F)c2)C(=O)C(=O)C1c1nc2ccccc2s1 | > 100 µM (inactive) | > 100 µM (inactive) | > 100 µM (inactive) | 31.8 µM (inactive) | 39.6 | 64.9 µM (inactive) | > 100 µM (inactive) | 68.9 µM (inactive) | > 81.7 µM (inactive) | 24.5 µM (inactive) | > 93.3 µM (inactive) | 79.8 µM (inactive) | > 100 µM (inactive) | > 100 µM (inactive) | > 100 µM (inactive) | 62.4 µM (inactive) | 98.2 µM (inactive) | 48.6 µM (inactive) | > 64 µM (inactive) | 68.1 µM (inactive)
4 | Cc1c(F)c(N)c2c(=O)cc(-c3ccc(NC(=O)C(N)CCCNC(=N)N)c(F)c3)oc2c1F (stereo unspecified) | 19.7 µM (inactive) | 21.6 µM (inactive) | 0.0615 µM (active) | > 52 µM (inactive) | 19.7 | > 52.2 µM (inactive) | 23.8 µM (inactive) | 38.1 µM (inactive) | 0.0759 µM (active) | > 88.3 µM (inactive) | 17.1 µM (inactive) | 22.8 µM (inactive) | 29.6 µM (inactive) | 27.2 µM (inactive) | 0.411 µM (active) | 3.6 µM (inactive) | 32.7 µM (inactive) |  | 27 µM (inactive) | 27.5 µM (inactive)
5 | O=C(NCCCCCCNC(=O)c1cc(-c2ccccc2)nc2ccccc12)c1cc(-c2ccccc2)nc2ccccc12 | > 100 µM (inactive) | > 100 µM (inactive) | > 100 µM (inactive) | > 100 µM (inactive) | > 100 | 54.3 µM (inactive) | > 100 µM (inactive) | > 100 µM (inactive) | 34.8 µM (inactive) | > 100 µM (inactive) | > 100 µM (inactive) | > 100 µM (inactive) | > 100 µM (inactive) | > 100 µM (inactive) | > 100 µM (inactive) | 88.3 µM (inactive) | > 100 µM (inactive) | > 100 µM (inactive) |  | > 100 µM (inactive)
6 | CCCCCc1c(CCCC)c(=O)[nH]c2cc(CNCC(OC)OC)ccc12 | 8.77 µM (inactive) | 12 µM (inactive) | 15.1 µM (inactive) | 6 µM (inactive) | 9.53 | 18.2 µM (inactive) | 2.41 µM (inactive) | 6.01 µM (inactive) | 14.9 µM (inactive) | 4.05 µM (inactive) | 14.2 µM (inactive) | 13.2 µM (inactive) | 14.6 µM (inactive) | 11.4 µM (inactive) | 15.5 µM (inactive) | 10.8 µM (inactive) | 16.7 µM (inactive) | 17.3 µM (inactive) | 11.7 µM (inactive) | 2.83 µM (inactive)
7 | COC(=O)c1c(C)cccc1C1CN=NC12Cc1ccc(C)c(C)c1C2=O (stereo unspecified) |  | 20.9 µM (inactive) | 36.3 µM (inactive) | 8.59 µM (inactive) | 23.2 | 77.1 µM (inactive) |  | 3.21 µM (inactive) | 46.2 µM (inactive) | 24.3 µM (inactive) | 50 µM (inactive) | 42.4 µM (inactive) | 54.6 µM (inactive) | 31.4 µM (inactive) | 3.2 µM (inactive) | 35.2 µM (inactive) | 49.4 µM (inactive) | 32.4 µM (inactive) | 34.3 µM (inactive) | 28.6 µM (inactive)
8 | O=C1c2ccccc2C(=O)c2c1ccc1c2OCO1 | > 100 µM (inactive) | > 100 µM (inactive) | > 100 µM (inactive) | > 100 µM (inactive) | > 100 | > 100 µM (inactive) | > 100 µM (inactive) | > 100 µM (inactive) | > 100 µM (inactive) | > 10 µM (inactive) | > 100 µM (inactive) | > 100 µM (inactive) | > 100 µM (inactive) | > 100 µM (inactive) | > 100 µM (inactive) | > 100 µM (inactive) | > 100 µM (inactive) | > 100 µM (inactive) | > 100 µM (inactive) | > 100 µM (inactive)
9 | O=c1n(-c2ccc(Cl)c(Cl)c2)c(=O)n(-c2ccc(Cl)c(Cl)c2)c(=O)n1-c1ccc(Cl)c(Cl)c1 | 1.9 µM (inactive) | 3.21 µM (inactive) | 2.73 µM (inactive) | 2.89 µM (inactive) | 1.58 | 3.67 µM (inactive) | 0.719 µM (active) | 2.55 µM (inactive) | 3.21 µM (inactive) | 1.15 µM (inactive) | 3.09 µM (inactive) | 2.76 µM (inactive) | 4.01 µM (inactive) | 3.93 µM (inactive) | 1.57 µM (inactive) | 3.71 µM (inactive) | 2.45 µM (inactive) | 2.99 µM (inactive) | 2.91 µM (inactive) | 3.3 µM (inactive)
10 | Cc1nc2ccc([N+](=O)[O-])cc2c(=O)n1C(=S)Nc1cccc(Cl)c1 | 14.1 µM (inactive) | 13.9 µM (inactive) | 9.4 µM (inactive) | 14.2 µM (inactive) | 12.9 | 19.2 µM (inactive) | 14 µM (inactive) | 12.9 µM (inactive) |  | 12.9 µM (inactive) | 20 µM (inactive) | 5.24 µM (inactive) | 28.4 µM (inactive) | 17.7 µM (inactive) | 7.53 µM (inactive) | 18.5 µM (inactive) | 16.8 µM (inactive) | 12.3 µM (inactive) | 12.9 µM (inactive) | 21.1 µM (inactive)
11 | CSc1nc(NC2OC(COC(C)=O)C(OC(C)=O)C(OC(C)=O)C2OC(C)=O)c(/N=C\C=N/c2c(NC3OC(COC(C)=O)C(OC(C)=O)C(OC(C)=O)C3OC(C)=O)nc(SC)n(C)c2=O)c(=O)n1C (stereo unspecified) | > 100 µM (inactive) | 17.9 µM (inactive) | 38.5 µM (inactive) | > 100 µM (inactive) | > 100 | 4.32 µM (inactive) | > 100 µM (inactive) | > 95.3 µM (inactive) | 65.8 µM (inactive) | > 100 µM (inactive) | > 92.9 µM (inactive) | > 100 µM (inactive) | > 100 µM (inactive) | > 100 µM (inactive) | 96.8 µM (inactive) | 41.2 µM (inactive) | 62.1 µM (inactive) | > 15.5 µM (inactive) | > 100 µM (inactive) | 81.5 µM (inactive)
12 | CSc1c(C#N)c(=O)[nH]c2[nH]nc(C)c12 | > 100 µM (inactive) | > 100 µM (inactive) | > 100 µM (inactive) | > 100 µM (inactive) | > 100 |  | > 100 µM (inactive) | > 100 µM (inactive) |  | > 100 µM (inactive) | > 100 µM (inactive) | > 100 µM (inactive) | > 100 µM (inactive) | > 100 µM (inactive) | > 100 µM (inactive) | > 100 µM (inactive) | > 100 µM (inactive) | > 100 µM (inactive) | > 100 µM (inactive) | > 100 µM (inactive)
13 | Br/C(=N\N=c1/nn[nH][nH]1)c1ccncc1 | > 100 µM (inactive) | > 100 µM (inactive) | > 100 µM (inactive) | > 100 µM (inactive) | > 100 | > 100 µM (inactive) | > 100 µM (inactive) | > 100 µM (inactive) | > 100 µM (inactive) | > 100 µM (inactive) | > 100 µM (inactive) |  | > 100 µM (inactive) | > 100 µM (inactive) | > 100 µM (inactive) | > 100 µM (inactive) | > 100 µM (inactive) | > 100 µM (inactive) | > 100 µM (inactive) | > 100 µM (inactive)
14 | NCCNCC(O)CO (stereo unspecified) | > 100 µM (inactive) | > 100 µM (inactive) | > 100 µM (inactive) | > 100 µM (inactive) | > 100 | > 100 µM (inactive) | > 100 µM (inactive) | > 100 µM (inactive) | > 100 µM (inactive) |  | > 100 µM (inactive) | > 100 µM (inactive) | > 100 µM (inactive) | > 100 µM (inactive) | > 100 µM (inactive) | > 100 µM (inactive) | > 100 µM (inactive) | > 100 µM (inactive) | > 100 µM (inactive) | > 100 µM (inactive)
